Where “and” joins values, the source holds several entries; their conditions need not be identical. Identical values can stand only once.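 Interpolation was linear, between the two tested concentrations surrounding the appropriate level; five concentrations were tested over 48 hours in 96-well plates. GI50 marks 50% less growth. TGI: total growth inhibition.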
How the values were obtained:
Assay in all cases: DTP human tumour cell line panel, 48 h
SK-MEL-2 melanoma = tested on: SK-MEL-2 melanoma
RXF-631 renal = tested on: RXF-631 renal
HOP-18 NSCLC = tested on: HOP-18 NSCLC
LXFL 529 NSCLC = tested on: LXFL 529 NSCLC
DMS 273 small cell lung = tested on: DMS 273 small cell lung
DMS 114 small cell lung = tested on: DMS 114 small cell lung
DLD-1 colon = tested on: DLD-1 colon
XF 498 CNS = tested on: XF 498 CNS
KM20L2 colon = tested on: KM20L2 colon
SNB-78 CNS = tested on: SNB-78 CNS
M19-MEL melanoma = tested on: M19-MEL melanoma

| SMILES | TGI (SK-MEL-2 melanoma) | TGI (LXFL 529 NSCLC) [µM] | TGI (DMS 273 small cell lung) [µM] | TGI (DMS 114 small cell lung) [µM] | TGI (DLD-1 colon) [µM] | further results |
| --- | --- | --- | --- | --- | --- | --- |
| CC(c1cccc2ccccc12)/[N+]([O-])=C/c1ccccc1 (stereo unspecified) | > 100 µM | > 100 | > 100 | > 100 | > 100 | TGI (RXF-631 renal): > 100 µM; TGI (HOP-18 NSCLC): > 100 µM; TGI (XF 498 CNS): > 100 µM; TGI (KM20L2 colon): > 100 µM |
| CCCCc1c2c(nc3c1CCC/C3=C\c1ccccc1)C(=O)C(CN(C)C)CC2 (stereo unspecified) | 39.4 µM | 21 | 41.1 | 34.8 | 33.4 | TGI (SNB-78 CNS): 45.6 µM; TGI (HOP-18 NSCLC): 38.5 µM; TGI (M19-MEL melanoma): 32 µM; TGI (XF 498 CNS): 28.2 µM; TGI (KM20L2 colon): 35.6 µM |
| COc1cc2[nH]c(-c3cccc(N(C)C)c3)cc(=O)c2cc1OC | – | > 100 | > 100 | > 49.1 | > 100 | TGI (SNB-78 CNS): > 100 µM; TGI (HOP-18 NSCLC): 9.35 µM; TGI (M19-MEL melanoma): > 100 µM; TGI (XF 498 CNS): > 100 µM; TGI (KM20L2 colon): 5.46 µM |
| CCOC(=O)c1c(NC(=O)Nc2ccccc2)c(C(N)=O)c2n1CCCCC2 | > 100 µM | – | – | – | – | – |
| COC(=N)C12C(N)=NC(OC)(OC)C1(C#N)C21C(=O)N(c2ccccc2)N=C1C (stereo unspecified) | > 100 µM | – | – | – | – | – |
| O=C(c1ccncc1)n1nc(-c2ccccc2)c(N=Nc2ccc([N+](=O)[O-])cc2)c1-c1ccccc1 | > 100 µM | 25.7 | > 100 | > 100 | > 100 | TGI (SNB-78 CNS): 28 µM; TGI (M19-MEL melanoma): > 100 µM; TGI (XF 498 CNS): > 100 µM |
| O=C(Cc1ccccc1)c1ccc2[nH]c(=O)oc2c1 | > 100 µM | – | – | – | – | – |
| CC(=O)c1ccc2c(c1)oc(=O)n2CCN1CCCCC1 | > 100 µM | – | – | – | – | – |
| CCC(=O)COc1ccc(NC(NC(=O)C(C(F)(F)F)C(F)(F)F)(C(F)(F)F)C(F)(F)F)cc1 | 95.5 µM | – | – | – | – | – |
| CC1=C(OC2OC(CO)C(O)C(O)C2O)C(=O)C[C@H]2C1=CC[C@@H]1[C@@]2(C)C(=O)C[C@]2(C)[C@@H]([C@@](C)(O)C(=O)CCC(C)(C)O)[C@H](O)C[C@@]12C (stereo partly specified) | > 100 µM | – | – | – | – | – |
| O=[N+]([O-])C(=C(N1CCOCC1)N1CCOCC1)/C(Cl)=C(\Cl)[N+](=O)[O-] | 32.2 µM | – | – | – | – | – |
| Cn1c2nc3ccccc3c-2cc2ccccc21 | 17.2 µM and 24 µM | – | – | – | – | GI50 (SK-MEL-2 melanoma): 3.94 µM and 11.1 µM |
| COc1ccc(CN(CCc2c[nH]c3ccccc23)Cc2ccc(OC)cc2)cc1 | 8.29 µM | – | – | – | – | – |
| CCC1(N=[N+]=[N-])C(=O)Nc2cc(C)ccc2C1=O (stereo unspecified) | > 100 µM | > 100 | > 100 | > 100 | > 100 | TGI (SNB-78 CNS): > 100 µM; TGI (HOP-18 NSCLC): > 100 µM; TGI (M19-MEL melanoma): > 100 µM; TGI (KM20L2 colon): > 100 µM |
| CCOC(=O)c1nc2ccc(C(F)(F)F)cc2nc1Oc1ccc(F)cc1 | > 100 µM | – | – | – | – | – |

Source: PubChem BioAssay (NCI)
